Source: patent US11472778B2, “Hepatitis C virus NS3/4A protease inhibitors” (priority 2017, dated 2022)

What was measured:
Format in all cases: biochemical, Hepatitis C virus
[1] = target: T1, GT1a D168A NS3/4A protease (UniProt P27958, C1185S/D1194A, species not given); conditions: read-out: Ki (nM) D168A; Table 6; P4/P4-P5 modified macrocycles
T1 construct: P4/P4-P5 modified macrocycles
In short: (§1)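 NS3/4A protease (2 nM; wild-type GT1a or D168A) pre-incubated 1 h at room temperature with increasing inhibitor in 50 mM Tris pH 7.5, 5% glycerol, 10 mM DTT, 0.6 mM LDAO, 4% DMSO. Ki from three independent data sets per construct; ΔG=RTlnKi.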

[2] = target: GT1a D168A NS3/4A protease; conditions: Table 6; with respect to GT1a wild-type
In short: as §1

[3] = target: T2, wild-type GT1a NS3/4A protease (UniProt P27958, C1185S, species not given); conditions: read-out: Ki (nM) GT1a WT; Table 6; P4/P4-P5 modified macrocycles
T2 construct: P4/P4-P5 modified macrocycles
In short: as §1

Compound: COC(=O)N[C@H](C(=O)N[C@H]1CCCCC/C=C\[C@@H]2C[C@@]2(C(=O)NS(=O)(=O)C2(C)CC2)NC(=O)[C@@H]2C[C@@H](Oc3nc4cc(OC)ccc4nc3C)CN2C1=O)C(C)(C)C [Compound P4-P5-1, Methyl ((S)-1-(((2R,6S,13aS,14aR,16aS,Z)-2-((7-methoxy-3-methylquinoxalin-2-yl)oxy)-14a-(((1-methylcyclopropyl)sulfonyl)carbamoyl)-5,16-dioxo-1,2,3,5,6,7,8,9,10,11,13a,14,14a,15,16,16a-hexadecahydrocyclopropa[e]pyrrolo[1,2-a][1,4]diazacyclopentadecin-6-yl)amino)-3,3-dimethyl-1-oxobutan-2-yl)carbamate]
- Ki [1]: 201 ± 15 nM
- Ki (Fold Change) D168A [2]: (8) fold
- Ki [3]: 29.5 nM
